According to patent US9241888B2, “Pharmaceutical or cosmetic composition for treating alopecia” (GIULIANI S.P.A., priority 2012, dated 2016):

How the values were obtained:
[1] = Reactivity: air oxidation, chemiluminometric determination of N-nitroso derivatives; format: physicochemical; details: 2 mM aqueous solution diluted with water/ethanol (85/15), exposed to ambient air 72 h
Description: The properties of 1,4-butanediamine,N-(3-aminopropyl)-N^1-methyl (II) and 1,4-butanediamine,N-(3-aminopropyl)-N^1-cyclohexyl (III) after exposure to air were studied by comparison with the corresponding non-substituted derivative, in which the N^1 amine group lacking the R substituent becomes a secondary amine group, namely 1,4-butanediamine,N-(3-aminopropyl). Since one of the common products of oxidation of the secondary amino group takes the form of the N-nitroso derivatives which are formed by reaction with the nitrogen oxides present in the air, the nitrosated derivatives which were formed upon leaving a solution of the test compounds in contact with the ambient air were determined as a parameter of reactivity.
The instrumentation used consisted of a stage on which both the analysis of the nitrite ions and the analysis of the N-nitrosamines were carried out, the latter under strong denitrosating conditions. The nitrogen oxide which developed in accordance with the amount of nitrite ions and that which developed in accordance with the quantity of nitroso groups were evaluated by way of a chemiluminometric detector.
The content of NO^2− ions was analysed using a reducing mixture of acetic acid/potassium iodide (5 ml/1 ml of 5% H2O soln.) at a temperature of 0-4° C. The nitroso groups were analysed using a denitrosating mixture of acetic acid/hydrobromic acid (5 ml/1 ml) at a temperature of 70° C.
The method for determining air oxidation of the compound was as follows.
a) a 2 mM solution of the test substance in purified water was doubly seeded, at an amount equal to 500 μl in appropriate wells of six-well plates of inert plastics material (polystyrene);
b) the solution in each well was diluted with 500 μl of a mixture of purified water and ethanol (85/15) free from contamination. This promotes the dispersion of the liquid film on the surface of the well;
c) the plate prepared in this manner is exposed to ambient air for 72 h
d) at the end of the exposure time, the residue in the well is eluted with 1 ml of purified water and then used for the chemiluminometric analysis.

NCTC2544 cells = experiment: Antioxidant test: production of reactive oxygen species (ROS), DCFH-DA spectrofluorometry; format: cell-based, human; details: for Concentration of ROS products compared to control cells treated with H2O2: 1.5 h, α-tocopherol 250 μg/ml, spermidine and N-methylspermidine 1 nM-1 mM
Procedure: The production of reactive oxygen species (ROS) was monitored by spectrofluorometry using 2′,7′-dichlorofluorescein diacetate (DCFH-DA) as described by Tobi et al. (Tobi S E, Paul N, T McMillan J. J Photochem. Photobiol, B 2000: 57: 102-112).
The aforementioned NCTC2544 cells (˜80% confluence) were detached with trypsin/EDTA and seeded at a density of 5×10^4 cells per well, in 96-well plates. Subsequently, the cells were treated with the N-methylspermidine according to the invention and spermidine. The following concentrations of N-methylspermidine and spermidine were tested: 1 nM, 500 nM, 1 μM, 500 μM, 1 mM (final concentration in the culture medium).
α-tocopherol (250 μg/ml) was used as a comparison. The plates were incubated at 37° C., in 5% CO2, for 1.5 h. The cells grown on basal medium with 10% FBS were used as a control.

[2] = test system: hair follicles (HF) in anagen VI phase from human scalp skin; experiment: Anagen and catagen phases in the ex vivo hair follicle model; format: cell-based
Procedure: The organ culture of hair follicles (HF) in anagen VI phase involved microdissection of HF from the skin of the human scalp (temporo-frontal area) after informed consent from the subjects who were undergoing surgery (face lifts), in accordance with the Helsinki Declaration and with the approval of the Ethics Committee of the University of Lübeck. […] For immunohistochemical studies, the isolated follicles were cultured for 6 consecutive days. Spermidine, N-methylspermidine and the vehicle (distilled water) were administered once for each change of culture medium (every 48 hours), at a concentration of 0.5 μM. The following results for the anagen and catagen phases, summarised in the graphs of FIGS. 5 and 6, were also obtained from the same ex vivo model of hair follicles (HF) described for the previous test of elongation of the hair shaft.

[3] = test system: hair follicles (HF) in anagen VI phase from human scalp skin; experiment: Hair shaft elongation test, ex vivo organ culture of hair follicles; format: cell-based; details: 0.5 μM, day 6; for Elongation of the hair shaft with respect to the vehicle: every 48 hours
Procedure: The activity of N-methylspermidine was tested in an ex vivo model which made it possible to measure the effect on the elongation of the hair shaft. The organ culture of hair follicles (HF) in anagen VI phase involved microdissection of HF from the skin of the human scalp (temporo-frontal area) after informed consent from the subjects who were undergoing surgery (face lifts), in accordance with the Helsinki Declaration and with the approval of the Ethics Committee of the University of Lübeck. […] For immunohistochemical studies, the isolated follicles were cultured for 6 consecutive days. Spermidine, N-methylspermidine and the vehicle (distilled water) were administered once for each change of culture medium (every 48 hours), at a concentration of 0.5 μM. The measurements of the shaft elongation after the treatment with vehicle, spermidine and N-methylspermidine were taken on days 0, 1, 4 and 6, using a Zeiss inverted binocular microscope with one eyepiece containing a reticle (Carl Zeiss, Oberkochen, Germany).

[4] = test system: NCTC2544 human keratinocytes; experiment: MTT Assay (cell viability / cytotoxicity); format: cell-based; details: 1 nM, 500 nM, 24 or 48 hours exposure
Description: MTT Assay is a test used for analysing cell viability (Mosmann, 1983). It is a colorimetric test based on the use of the tetrazolium salt MTT, which measures cell viability which can then be quantified by a microplate spectrophotometric reader. MTT (3-(4,5-dimethylthiazol-2-yl)-2,5-diphenyltetrazolium bromide, a tetrazole), a yellow compound, is reduced to formazan, a purple substance, in cellular mitochondria. The absorbance of this coloured solution can be quantified by measuring it at a given wavelength (570 nm) using a spectrophotometer. The maximum absorbance will depend on the solvent used. This reduction only takes place when the mitochondrial reductase enzymes are active, and the conversion to formazan can therefore be related directly to the number of viable cells. When the amount of formazan produced by cells treated with a substance is compared with the amount produced by untreated control cells, it is possible to deduce the efficacy of the tested substance in causing cell death by producing a dose-response curve. The solutions of MTT solubilised in PBS or cell culture medium, without phenol red, are of a yellowish colour. […] The resulting purple solution is analysed by spectrophotometry. An increase in the number of cells will result in an increase in the formazan obtained and in an increase in absorbance. […]

NCCCCN(CCCN)C1CCCCC1 [N-(3-aminopropyl)-N^1-cyclohexyl-1,4-butanediamine]
Nitroso derivatives after 72 h exposure [1]: absent

CNCCCCNCCCN [N-methylspermidine, N-(3-aminopropyl)-N′-methyl-1,4-butanediamine]
Concentration of ROS products compared to control cells treated with H2O2 (NCTC2544 cells): decrease in the concentration of ROS products
Antioxidant activity compared with that of spermidine (NCTC2544 cells; comparison with spermidine): no significant difference
Effect of prolonging the anagen phase, compared with spermidine ([2]; 0.5 μM each, 6 days): greater effect of prolonging the anagen phase
Number of hairs entering the catagen phase, compared with spermidine ([2]; 0.5 μM each, 6 days): significantly lower
Follicles entering catagen spontaneously ([2]; 0.5 μM, after 6 days of treatment, vehicle more than 60%): ~30%
Percentage of hair follicles in the anagen phase ([2]; 0.5 μM, after 6 days of treatment, versus vehicle): significant increase
Nitroso derivatives after 72 h exposure [1]: absent
Elongation of the hair shaft with respect to the vehicle [3]: improve the elongation of the hair shaft significantly
Difference in hair shaft elongation between spermidine and N-methylspermidine [3]: not statistically significant

NCCCCNCCCN [spermidine, N′-(3-aminopropyl)-1,4-diaminobutane, reference compound]
Cytotoxic effects / cell viability in percent against the control [4]: no cytotoxic effects
Concentration of ROS products compared to control cells treated with H2O2 (NCTC2544 cells): decrease in the concentration of ROS products
Nitroso derivatives after 72 h exposure [1]: 2.3 ppm
Elongation of the hair shaft with respect to the vehicle [3]: improve the elongation of the hair shaft significantly

Cc1c(C)c2c(c(C)c1O)CC[C@@](C)(CCC[C@H](C)CCC[C@H](C)CCCC(C)C)O2 [α-tocopherol, reference compound]
Concentration of ROS products compared to control cells treated with H2O2 (NCTC2544 cells): decrease in the concentration of ROS products
